Test results reported in US20240277692A1, “1,2-DIHYDROQUINOLINE-2-ONES FOR THEIR USE IN THE TREATMENT OF LIMB-GIRDLE MUSCULAR DYSTROPHY” (CONSEJO SUPERIOR DE INVESTIGACIONES CIENTÍFICAS, priority 2021, published 2024).

Columns and labels:
Wnt pathway [1] = test: Western blot of Wnt pathway proteins in human myotubes after drug administration; type: cell-based; settings: for active β-catenin: myotubes
Description: (§1) To obtain primary myoblasts, muscle biopsies were processed and cultured in monolayer according to the method described by Askanas (Neurology, 1975, 25, 58-67). To isolate the pure population of myoblasts and CD56-negative cells (CD56-), the protocol described previously (Jaka et al., Expert Reviews in Molecular Medicine, 2017, 19, e2) was used, using immunomagnetic separation based on the early presence of the surface marker CD56 (Miltenyi Biotec, 130-050-401).
(§2) Myoblasts were cultured in proliferation medium (DMEM, M-199, Insulin, Glutamine and penicillin-streptomycin) with 10% FBS and growth factors at 37° C. in 5% CO2 air incubator. When myoblasts reached confluence, the FBS concentration was reduced to 2% and growth factors were removed from the medium, promoting fusion and production of myotubes.
(§3) VP0.7 was provided by Dr. Ana Martínez (from The Center for Biological Research, CSIC). It was administered at 1.2 μM, whereas LiCl (Sigma-Aldrich, L7026) was used for comparative purposes at a final concentration of 10 mM. VP0.7 and LiCl were administered at the above referred concentrations to myotubes at eight days of differentiation, and VP0.7 also to skin fibroblasts and to CD56-cells. Negative controls, in the case of VP0.7, were performed with DMSO (Fisher Scientific, BP-231). At 48 hours after drug administration, RNA and proteins were extracted.
(§4) Protein collection from muscle samples and cell cultures, as well as Western blot procedure, were performed as previously described (Jaka et al., Expert Reviews in Molecular Medicine, 2017, 19, e2).
We proceeded to analyse the expression of the GSK3β protein, as well as its downstream effect on the Wnt pathway in myotubes from controls and patients after drug administration. […] As a control assay, lithium was administered and an increase in active β-catenin was verified (FIG. 2C).

GSK3β = settings: low dose, Whitley et al. 2020, cited from earlier work
FRBZ gene, β1D integrin = settings: LiCl treatment, cited from earlier work
GSK3 [2] = settings: low therapeutic dose 0.5 mM, Kurgan et al. 2019; cited from earlier work
Akt/mTOR pathway = test: Western blot of Akt/mTOR pathway proteins in human myotubes; type: cell-based
Description: as §1, §2, §3, §4
Furthermore, downstream of the mTOR pathway, the p70S6K and RPS6 proteins were analysed. After administration of VP0.7, the expression of total p70S6K, its phosphorylation (Thr421/Ser424 and Thr389), as well as the levels of phosphorylation of the RPS6 protein (Ser235/Ser236) increased in the patient's sample. In the control, the effect observed after the treatments is very slight (FIG. 3B).
For comparative purposes, LiCl was also administered in control and patient's myotubes and the phosphorylation of p70S6K and RPS6 proteins were also tested. The results are depicted in FIG. 4.

integrin β1D and melusin = test: Western blot of costamere structural proteins in human myotubes; type: cell-based; settings: VP0.7 1.2 μM, 48 h
Description: as §3, §4
Likewise, the expression of some of the structural proteins that are part of the costamere, whose expression is altered in LGMDR1 patients, was analysed. After drug administration, an increase in integrin β1D and melusin was also observed (FIG. 2E).

[3] = system: CAPN3, FOS, ANOS1 and ITGB1BP2 genes; test: Quantitative real-time PCR of deregulated genes in LGMDR1 myotubes; type: cell-based, human; settings: VP0.7 1.2 μM, 48 h
Description: as §3
RNA extraction from primary myoblast/myotubes was performed with an RNeasy Mini Kit (Qiagen). In the case of the muscle biopsies, which were snap frozen and stored at −80° C. until use, total RNA was obtained using an RNA-Plus Kit (QBiogene).
The isolated RNA was reverse-transcribed to first-strand complementary DNA (cDNA) in a final volume of 50 μl using a High Capacity cDNA Reverse Transcription Kit (Applied Biosystems), according to the manufacturer's instructions. The expression levels of CAPN3, FOS, ITGB1BP2, ANOS1 and GAPDH genes in the samples were assessed by real-time quantitative PCR with TaqMan probes (Table Il below) using the ‘CFX384 Real-Time PCR Detection System’ (Bio-Rad).
On the other hand, in previous studies we had already described that activating the Wnt pathway through the silencing of the FRZB gene or with treatment with lithium, the expression of some altered genes in the muscle of patients was recovered (Jaka et al., Expert Reviews in Molecular Medicine, 2017, 19, e2; Casas-Fraile et al., Orphanet Journal of Rare Diseases, 2020, 15(1), 119). Thus, their expression was analysed after administering VP0.7.

Wnt pathway [4] = test: Western blot of Wnt pathway proteins in CD56- cells; type: cell-based, human; settings: VP0.7 1.2 μM, 48 h
From the text: as §1, §3, §4

GSK3 [5] = target: GSK3 (Homo sapiens, UniProt P49841); settings: highly selective and allosteric modulator; Luna-Medina 2007, Palomo 2011; cited from earlier work
GSK3 (Homo sapiens, UniProt P49841), sequence (P49841 whole entry): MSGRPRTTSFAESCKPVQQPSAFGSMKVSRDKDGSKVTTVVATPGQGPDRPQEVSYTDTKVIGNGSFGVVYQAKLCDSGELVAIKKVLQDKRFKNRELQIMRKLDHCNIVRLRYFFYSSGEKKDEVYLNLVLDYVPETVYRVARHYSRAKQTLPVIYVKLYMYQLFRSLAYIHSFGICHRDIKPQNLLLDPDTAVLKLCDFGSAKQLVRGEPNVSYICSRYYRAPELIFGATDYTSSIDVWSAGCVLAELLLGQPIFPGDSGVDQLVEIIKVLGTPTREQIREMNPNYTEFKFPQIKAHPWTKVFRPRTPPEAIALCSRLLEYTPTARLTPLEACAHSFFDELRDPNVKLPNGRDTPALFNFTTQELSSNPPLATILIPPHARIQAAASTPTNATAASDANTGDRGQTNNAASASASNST

Wnt pathway [6] = test: Western blot of Wnt pathway proteins in skin fibroblasts; type: cell-based, human; settings: VP0.7 1.2 μM, 48 h
Description: (§5) Skin fibroblasts from healthy controls and from LGMDR1 patients were provided by Dr. Ana Aiastui (Biodonostia Health Research Institute, Cell Culture and Histology Platform). Cells were cultured in Dulbecco's modified Eagle's medium (DMEM, Gibco, 41966-029) supplemented with 10% FBS (Gibco, 10270-106) and 1% penicillin-streptomycin (Gibco, 15140-122) at 37° C. in a 5% CO2 air incubator. Human fibroblasts were cultured at a density of 4×10^4 cells/ml.
as §3, §4

mTOR pathway [7] = test: Western blot of mTOR pathway proteins in CD56- cells; type: cell-based, human; settings: VP0.7 1.2 μM, 48 h
From the text: as §1, §3, §4

mTOR pathway [8] = test: Western blot of mTOR pathway protein in skin fibroblasts; type: cell-based, human; settings: VP0.7 1.2 μM, 48 h
Description: as §5, §3, §4

[9] = LiCl 10 mM, drug administration +, myotubes, control 09-23
[10] = LiCl 10 mM, drug administration +, myotubes, control 13-07
[11] = LiCl 10 mM, drug administration +, myotubes, patient 09-21
[12] = LiCl 10 mM, drug administration +, myotubes, patient 09-24
[13] = LiCl 10 mM, drug administration +, myotubes, patient 09-25
[14] = VP0.7 1.2 μM, 48 h, patient's myotubes
[15] = VP0.7 1.2 μM, 48 h, patient's sample, myotubes
[16] = VP0.7 1.2 μM, myotubes, control 13-05, relative to the same sample without treatment
[17] = VP0.7 1.2 μM, myotubes, patient 09-25, relative to the same sample without treatment

For [Cl-].[Li+] [LiCl, reference compound], the “active β-catenin” value (Wnt pathway [1]; LiCl 10 mM, 48 h, control assay) is given as “increase”, the “inhibition of GSK3β” value (GSK3β) is given as “effective in inhibiting” and the “fatigue resistance in some muscles” value (GSK3β; via NFAT activation) is given as “enhances”. The “expression of the FRBZ gene” value (FRBZ gene, β1D integrin; Jaka et al. 2017) was “lower levels”, the “β1D adult isoform of the integrin” value (FRBZ gene, β1D integrin; primary myotubes) was “higher levels” and the “inhibition of GSK3” value (GSK3 [2]) was “inhibit”. The myoblast fusion (GSK3 [2]) was “augment”, the “proteins involved in the mTOR pathway and their phosphorylation forms” value (Akt/mTOR pathway; LiCl 10 mM, 48 h, control and patient's myotubes) was “did not provide any increase” and the “P-RPS6 (S235-S236)” value (Akt/mTOR pathway; [9]) was 3.8. The “P-p70S6K (T421-S424)” value (Akt/mTOR pathway; [9]) was 0.78, the “P-RPS6 (S235-S236)” value (Akt/mTOR pathway; [10]) was 3 and the “P-p70S6K (T421-S424)” value (Akt/mTOR pathway; [10]) was 0.7. For the same compound, the “P-RPS6 (S235-S236)” value (Akt/mTOR pathway; [11]) was 1.5, the “P-p70S6K (T421-S424)” value (Akt/mTOR pathway; [11]) was 0.5 and the “P-RPS6 (S235-S236)” value (Akt/mTOR pathway; [12]) was 3. For the same compound, the “P-p70S6K (T421-S424)” value (Akt/mTOR pathway; [12]) was 1.4, the “P-RPS6 (S235-S236)” value (Akt/mTOR pathway; [13]) was 2.5 and the “P-p70S6K (T421-S424)” value (Akt/mTOR pathway; [13]) was 0.65.

In the case of CCCCCCCCCCCC(=O)NNC(=O)c1c(O)c2ccccc2n(CC)c1=O [VP0.7, N′-dodecanoyl-1-ethyl-4-hydroxy-2-oxo-1,2-dihydroquinoline-3-carbohydrazide], the “total β-catenin expression” value (Wnt pathway [1]; VP0.7 1.2 μM, 48 h, myotubes day 8 of differentiation, controls and LGMDR1 patients) is reported as “increase”, the “active β-catenin” value (Wnt pathway [1]; VP0.7 1.2 μM, 48 h, controls and LGMDR1 patients) is reported as “increase” and the “inhibition of GSK3β kinase” value (Wnt pathway [1]; myotubes after drug administration) is reported as “effective inhibition”. The “integrin β1D” value (integrin β1D and melusin) was “increase”, the melusin (integrin β1D and melusin) was “increase” and the “expression of ANOS1” value [3] was “increase”. The “expression of CAPN3” value [3] was “increase”, the “expression of FOS” value [3] was “increase” and the “expression of ITGB1BP2” value [3] was “increase”. The “active form of β-catenin” value (Wnt pathway [4]) was “no significant alteration”, the “amount of total β-catenin” value (Wnt pathway [4]) was “no significant alteration” and the “inhibition of GSK3” value (GSK3 [5]) was “reversibly inhibits”. The “active form of β-catenin” value (Wnt pathway [6]) was “did not show an increase”, the “phosphorylation of GSK3β(Ser9)” value (Wnt pathway [6]) was “did not show an increase” and the β-catenin (Wnt pathway [6]) was “did not show an increase”. For the same compound, the mTOR (mTOR pathway [7]) was “no differences”, the “phosphorylation of RPS6” value (mTOR pathway [7]) was “no differences” and the “phosphorylation of p70S6K” value (mTOR pathway [7]) was “no differences”. The “phosphorylation of RPS6” value (mTOR pathway [8]) was “very slight increase”, the “effect on p70S6K and RPS6 expression/phosphorylation” value (Akt/mTOR pathway; VP0.7 1.2 μM, 48 h, control myotubes) was “very slight” and the “phosphorylation of mTOR (Ser2448)” value (Akt/mTOR pathway; [14]) was “significant increase”. For the same compound, the “phosphorylation of mTOR (Ser2481)” value (Akt/mTOR pathway; [14]) was “significant increase”, the “total mTOR” value (Akt/mTOR pathway; [14]) was “no significant changes” and the “expression of total p70S6K” value (Akt/mTOR pathway; [15]) was “increased”. The “p70S6K phosphorylation (Thr389)” value (Akt/mTOR pathway; [15]) was “increased”, the “p70S6K phosphorylation (Thr421/Ser424)” value (Akt/mTOR pathway; [15]) was “increased” and the “phosphorylation of the RPS6 protein (Ser235/Ser236)” value (Akt/mTOR pathway; [15]) was “increased”. For the same compound, the “P-p70S6K (T421-S424)” value (Akt/mTOR pathway; VP0.7 1.2 μM, myotubes, control 13-05, protein expression value relative to the same sample without treatment) was 1, the “P-RPS6 (S235-S236)” value (Akt/mTOR pathway; [16]) was 1.1 and the “P-p70S6K (T389)” value (Akt/mTOR pathway; [16]) was 0.94. The “P-p70S6K (T421-S424)” value (Akt/mTOR pathway; VP0.7 1.2 μM, myotubes, patient 09-25, protein expression value relative to the same sample without treatment) was 1.6, the “P-RPS6 (S235-S236)” value (Akt/mTOR pathway; [17]) was 2.8 and the “P-p70S6K (T389)” value (Akt/mTOR pathway; [17]) was 1.6.
